Where no end group is shown, it is not given here.
Assays:
[1] = target: RBD-sfGFP (SARS-CoV-2 RBD fused to superfolder GFP) (Severe acute respiratory syndrome coronavirus 2, UniProt P0DTC2)
[2] = test system: S protein-pseudotyped virus; assay type: cell-based, SARS-CoV-2

Substance	reduction (depletion) of GFP+ cells [1]	degradation in TRIM21 assay compared with other architectures [1]	difference in pseudoviral infection competency with addition of exogenous peptide [2]
QAKTFLDKFNHEAEDLFYQSSLA [sACE2 peptide variant 2]	~20%		
23-mer (A2N) (QNKTFLDKFNHEAEDLFYQSSLA; also: fused to a dimerising Fc or GST)	over 50%	improving on both the sACE2 and 23-mer architecture as well as that of a previously optimized full- length mutant, sACE2v2.4	Minimal difference

Source: patent publication US20220002700A1, “COMPUTATIONALLY-OPTIMIZED ACE2 PEPTIDES FOR COMPETITIVE INTERCEPTION OF SARS-CoV-2” (priority 2020, published 2022)
